Reference: US12187742B2 (XRAD Therapeutics, Inc., priority 2018, dated 2025)
Where a name gives a salt, the structure may show the parent alone.

Target: ATM (Homo sapiens (Human), UniProt Q13315)
Assay: ATM in Cell Western Assay (pKAP1 in etoposide-treated MCF-7 cells)
Assay type: cell-based
Settings: MCF-7 cells, etoposide 100 μM, 1 hr, pKAP1 readout
Method: Assay of Compounds ATM and DNA-PK Inhibition
ATM in Cell Western Assay:
Next day, add corresponding concentration of compounds using pin tool (Echo 550), the final top concentration is 1 μM, 3-fold series dilution, total 10 doses. Then add etoposide (Sigma, #E1383) to a final concentration of 100 μM. Incubate at 37° C. for 1 hr. Fix cells by adding 25 μL of fixing solution (8% paraformaldehyde) for 20 minutes at ambient temperature. Permeabilize cells for 5 washes with 1×PBS (phosphate buffered saline) containing 0.1% Triton X-100; each wash is for 5 minutes. […] The next day, wash the plate 5 times with 1×PBST (1×PBS containing 0.1% Tween-20). […] Wash the cells for 5 times with 1×PBST (1×PBS containing 0.1% Tween-20) at ambient temperature, using gentle shaking in the dark. After the last wash
remove wash solution, turn plate upside down onto a thin paper towel and centrifuge at 1000 rpm for 1 min to absorb all wash buffer. Clean the bottom of plate with moist lint free paper. Scan plate immediately using ODYSSEY CLx (LI-COR) for the best results.

ATM, sequence (Q13315 whole entry): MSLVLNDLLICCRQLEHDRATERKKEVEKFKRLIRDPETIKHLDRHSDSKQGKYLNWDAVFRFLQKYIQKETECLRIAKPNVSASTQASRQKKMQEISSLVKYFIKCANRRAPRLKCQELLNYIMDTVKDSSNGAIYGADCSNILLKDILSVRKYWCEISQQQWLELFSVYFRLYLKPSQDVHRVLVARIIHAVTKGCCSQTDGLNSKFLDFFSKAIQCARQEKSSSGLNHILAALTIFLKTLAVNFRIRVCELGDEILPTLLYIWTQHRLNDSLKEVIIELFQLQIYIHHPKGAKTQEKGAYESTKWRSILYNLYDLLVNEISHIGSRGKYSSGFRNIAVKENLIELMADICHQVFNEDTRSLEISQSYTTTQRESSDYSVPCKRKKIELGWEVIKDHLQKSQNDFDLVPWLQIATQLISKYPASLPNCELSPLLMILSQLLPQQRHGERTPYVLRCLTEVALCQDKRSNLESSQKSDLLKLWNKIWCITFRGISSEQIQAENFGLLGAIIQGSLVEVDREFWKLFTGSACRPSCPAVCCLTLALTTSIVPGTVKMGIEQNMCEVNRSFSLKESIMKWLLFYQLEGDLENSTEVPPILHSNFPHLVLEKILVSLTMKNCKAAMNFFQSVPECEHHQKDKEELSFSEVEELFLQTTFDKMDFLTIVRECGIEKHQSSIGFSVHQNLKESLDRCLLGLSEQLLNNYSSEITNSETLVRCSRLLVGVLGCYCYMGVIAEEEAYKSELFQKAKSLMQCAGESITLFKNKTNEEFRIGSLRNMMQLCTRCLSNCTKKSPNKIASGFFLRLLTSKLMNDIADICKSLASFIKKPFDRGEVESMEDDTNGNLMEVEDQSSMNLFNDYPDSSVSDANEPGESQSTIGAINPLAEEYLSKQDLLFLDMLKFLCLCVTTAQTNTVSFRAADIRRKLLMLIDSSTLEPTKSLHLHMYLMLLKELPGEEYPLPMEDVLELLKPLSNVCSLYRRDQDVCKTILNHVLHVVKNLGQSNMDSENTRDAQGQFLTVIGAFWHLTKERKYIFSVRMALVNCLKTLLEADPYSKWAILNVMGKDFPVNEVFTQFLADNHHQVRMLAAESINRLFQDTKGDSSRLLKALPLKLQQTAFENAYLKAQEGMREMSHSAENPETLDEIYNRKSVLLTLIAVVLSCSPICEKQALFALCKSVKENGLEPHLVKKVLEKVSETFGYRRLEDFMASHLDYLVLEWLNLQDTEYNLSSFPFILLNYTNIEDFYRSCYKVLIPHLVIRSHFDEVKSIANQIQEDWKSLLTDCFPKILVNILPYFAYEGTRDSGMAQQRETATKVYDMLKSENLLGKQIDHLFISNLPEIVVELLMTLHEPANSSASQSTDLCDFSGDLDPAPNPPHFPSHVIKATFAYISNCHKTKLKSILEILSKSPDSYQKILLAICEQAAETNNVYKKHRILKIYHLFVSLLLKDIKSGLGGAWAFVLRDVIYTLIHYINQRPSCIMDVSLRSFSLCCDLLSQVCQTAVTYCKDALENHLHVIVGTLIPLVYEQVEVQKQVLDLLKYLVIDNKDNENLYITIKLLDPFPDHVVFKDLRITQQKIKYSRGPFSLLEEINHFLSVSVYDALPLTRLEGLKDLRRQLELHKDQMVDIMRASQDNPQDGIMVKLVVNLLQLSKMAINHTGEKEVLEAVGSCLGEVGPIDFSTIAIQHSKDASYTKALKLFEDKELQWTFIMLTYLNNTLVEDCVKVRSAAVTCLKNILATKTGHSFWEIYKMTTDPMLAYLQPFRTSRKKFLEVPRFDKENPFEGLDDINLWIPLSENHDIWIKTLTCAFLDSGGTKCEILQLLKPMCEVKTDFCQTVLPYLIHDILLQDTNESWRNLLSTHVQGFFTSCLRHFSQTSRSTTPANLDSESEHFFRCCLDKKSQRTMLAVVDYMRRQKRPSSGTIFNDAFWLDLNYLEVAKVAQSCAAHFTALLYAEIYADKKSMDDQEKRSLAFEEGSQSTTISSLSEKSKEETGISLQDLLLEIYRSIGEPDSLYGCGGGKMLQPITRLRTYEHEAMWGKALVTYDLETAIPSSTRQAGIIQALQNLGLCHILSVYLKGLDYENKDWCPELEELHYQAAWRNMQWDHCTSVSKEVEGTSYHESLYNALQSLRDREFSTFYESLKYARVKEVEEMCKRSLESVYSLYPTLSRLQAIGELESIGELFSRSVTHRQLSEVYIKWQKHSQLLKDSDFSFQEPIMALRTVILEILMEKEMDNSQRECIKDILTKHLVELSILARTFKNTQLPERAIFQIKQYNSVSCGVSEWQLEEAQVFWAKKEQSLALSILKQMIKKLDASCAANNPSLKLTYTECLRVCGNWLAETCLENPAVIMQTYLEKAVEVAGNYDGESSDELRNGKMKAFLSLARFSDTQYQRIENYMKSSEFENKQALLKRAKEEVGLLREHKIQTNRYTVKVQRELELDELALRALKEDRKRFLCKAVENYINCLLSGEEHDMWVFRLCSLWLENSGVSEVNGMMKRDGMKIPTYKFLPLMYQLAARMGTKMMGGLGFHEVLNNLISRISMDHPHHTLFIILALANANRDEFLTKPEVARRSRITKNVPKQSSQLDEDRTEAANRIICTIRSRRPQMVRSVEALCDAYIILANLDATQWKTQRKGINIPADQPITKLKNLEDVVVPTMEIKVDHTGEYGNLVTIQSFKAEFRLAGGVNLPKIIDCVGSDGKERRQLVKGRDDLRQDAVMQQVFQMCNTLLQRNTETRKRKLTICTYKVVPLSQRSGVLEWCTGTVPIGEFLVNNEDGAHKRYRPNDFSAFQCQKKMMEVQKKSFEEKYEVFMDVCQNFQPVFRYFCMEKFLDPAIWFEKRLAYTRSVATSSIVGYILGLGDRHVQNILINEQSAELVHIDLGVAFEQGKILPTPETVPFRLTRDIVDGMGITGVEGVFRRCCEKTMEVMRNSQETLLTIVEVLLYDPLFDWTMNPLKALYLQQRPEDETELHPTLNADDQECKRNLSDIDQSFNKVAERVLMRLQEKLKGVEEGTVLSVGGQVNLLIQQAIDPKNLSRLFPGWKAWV

| IC50 [nM] | Structure (SMILES) |
| --- | --- |
| > 100 | [2H]C([2H])(COc1ncc(-c2ccc3ncc4c(c3c2)C2(CCC2)C(=O)N4C)cc1NS(=O)(=O)c1ccc(C)nc1)CN1CCCCC1 [Example 219, 6-Methyl-N-(5-(3′-methyl-2′-oxo-2′,3′-dihydrospiro[cyclobulane-1,1′-pyrrolo[2,3-c]quinolin]-8′-yl)-2-(3-(piperidin-1-yl)propoxy-2,2-d2)pyridin-3-yl)pyridine-3-sulfonamide] |
| > 100 | CN1C(=O)C2(CC2)c2c1cnc1ccc(-c3ccc4nc(Cl)ccc4c3)cc21 [Example 41, 8′-(2-Chloroquinolin-6-yl)-3′-methylspiro [cyclopropane-1,1′-pyrrolo [2,3-c]quinolin]-2′(3′-H)-one] |
| 1 to 100 | CN(C)CCCOc1ncc(-c2ccc3ncc4c(c3c2)C2(CC(=O)C2)C(=O)N4C)cc1NS(C)(=O)=O [Example 258, N-(2-(3-(Dimethylamino)propoxy)-5-(3′-methyl-2′,3′-dioxo-2′,3′-dihydrospiro [cyclobutane-1,1′-pyrrolo[2,3-c]quinolin]-8′-yl)pyridin-3-yl)methanesulfonamide] |
| 1 to 100 | CN1CC=C(c2ncc(-c3ccc4ncc5c(c4c3)C3(CCC3)C(=O)N5C)cc2NS(C)(=O)=O)CC1 [Example 276, N-(1′-Methyl-5-(3′-methyl-2-oxo-2′,3′-dihydrospiro[cyclobutane-1,1′-pyrrolo[2,3-c]quinolin]-8′-yl)-1′,2′,3′,6′-tetrahydro-[2,4′-bipyridin]-3-yl)methanesulfonamide] |

Same assay, conditions: pKAP1 in etoposide-treated MCF-7 cells

| IC50 [nM] | Structure (SMILES) |
| --- | --- |
| 1 to 100 | CC(C)NCCOc1ncc(-c2cc3c(cc2F)ncc2c3[C@]3(C[C@H](N4CCOCC4)C3)C(=O)N2C)cc1NS(C)(=O)=O [Example 471, cis-N-(5-(7′-Fluoro-3′-methyl-3-morpholino-2-oxo-2′,3′-dihydrospiro[cyclobutane-1,1′-pyrrolo[2,3-c]quinolin]-8′-yl)-2-(2-(isopropylamino)ethoxy)pyridin-3-yl)methanesulfonamide] |
| 1 to 100 | CN(C)CCCOc1c(NS(C)(=O)=O)cc(-c2ccc3ncc4c(c3c2)C2(CCC2)C(=O)N4C)cc1C(N)=O [Example 449, 2-(3-(Dimethylamino)propoxy)-5-(3′-methyl-2′-oxo-2′,3′-dihydrospiro[cyclobutane-1,1′-pyrrolo[2,3-c]quinolin]-8′-yl)-3-(methylsulfonamido)benzamide] |
| > 100 | COC(=O)c1cc(-c2ccc3ncc4c(c3c2)C2(CCC2)C(=O)N4C)cc(NS(C)(=O)=O)c1OCCCN(C)C [Example 559, Methyl 2-(3-(dimethylamino)propoxy)-5-(3′-methyl-2′-oxo-2′,3′-dihydrospiro[cyclobutane-1,1′-pyrrolo[2,3-c]quinolin]-8′-yl)-3-(methylsulfonamido)benzoate] |
| > 100 | CN(C)CCCOc1c(NS(C)(=O)=O)cc(-c2ccc3ncc4c(c3c2)C2(CCC2)C(=O)N4C)cc1C(=O)N(C)C [Example 564, 2-(3-(Dimethylamino)propoxy)-N,N-dimethyl-5-(3′-methyl-2′-oxo-2′,3′-dihydrospiro[cyclobutane-1,1′-pyrrolo[2,3-c]quinolin]-8′-yl)-3-(methylsulfonamido)benzamide] |
| > 100 | CC(C)NCCOc1ncc(-c2cc3c4c(cnc3cc2F)N(C)C(=O)C42CN([C@H]3CC[C@H](O)CC3)C2)cc1NS(C)(=O)=O [Example 505, N-(5-(7′-Fluoro-1-(trans-4-hydroxycyclohexyl)-3′-methyl-2′-oxo-2′,3′-dihydrospiro[azetidine-3,1′-pyrrolo[2,3-c]quinolin]-8′-yl)-2-(2-(isopropylamino)ethoxy)pyridin-3-yl)methanesulfonamide] |
| > 100 | CN(C)CCN(C)c1ncc(-c2cc3c4c(cnc3cc2F)N(C)C(=O)C42CCC2)cc1NS(C)(=O)=O [Example 363, N-(2-((2-(Dimethylamino)ethyl)(methyl)amino)-5-(7′-fluoro-3′-methyl-2′-oxo-2′,3′-dihydrospiro[cyclobutane-1,1′-pyrrolo[2,3-c]quinolin]-8′-yl)pyridin-3-yl)methanesulfonamide hydrochloride] |
